Experiments:
Format in all cases: cell-based, human
[1] = test system: RPMI-8226 Multiple Myeloma cell line; assay: DIMSCAN cytotoxicity, fenretinide + L-threo-sphinganines 3:1 (Example B2); conditions: 96 h
Description: (§1) Cytotoxicity Assay—Once again, cytotoxicity is determined using the DIMSCAN assay system (R. Proffitt et al., Cytometry 24, 204-213 (1996); T. Frgala et al., Mol Cancer Ther. 6:886-97, 2007). The system employs digital imaging microscopy to quantify viable cells, which selectively accumulate fluorescein diacetate to become brightly fluorescent. The system is capable of measuring cytotoxicity over a 4-5 log dynamic range by quenching the residual fluorescence of dead and dying cells with eosin Y and quantifying the total fluorescence of viable cells using digital thresholding. Measured fluorescence is directly proportionate to the number of viable cells. A comparison of the total fluorescence of a drug-treated cell population to the fluorescence of a similar number of untreated cells yields a survival fraction. In brief, 2000 to 10,000 cells/well (depending on size and growth rates) are replicate plated into 60 wells of a 96-well tissue culture plate in 0.1 mL of whole medium and allowed to attach overnight. Drug(s) are then added in 0.05 mL of whole medium to the final concentrations indicated. Drugs (fenretinide, and various chain length L-threo-sphinganines) were tested both as single agents and in a 3:1 ratio of fenretinide:sphinganine. C18-L-threo-sphinganine, or “safingol,” was also tested and results shown for reference. There are 12 wells treated per drug concentration. Twelve wells receive drug vehicle-only to the appropriate final concentration and serve as controls for the plate. Cells are incubated for 96 hours at 37° C. in ambient air with 5% CO2. Fluorescein diacetate is then added to each well in 0.05 mL media to a final concentration of 8 microgram/mL. Cells are incubated for a further 15 minutes at 37° C. and 0.03 mL of 0.5% eosin Y is added to each well. Total fluorescence of viable cells is then measured by digital imaging microscopy. Results were graphed as the ratio of the fluoresecence of drug-treated wells to non-drug treated control wells (i.e., Survival Fraction). All tests were performed at least twice. Representative results are shown.
(§2) The Combination Index (CI) is a term to describe mathematical modeling of the pharmacologic effects on cytotoxicity (cell death) of two drugs in combination based. Cytotoxic “synergy” is defined as a cell death affect which is greater than would be expected from a simple product of the single agent cytotoxicities alone (i.e. an “additive” effect). By Chou-Talalay analysis, a CI<0.9 on a Fraction Affected (“Fa”, i.e. fraction of cells killed) indicates synergy, with smaller numbers indicating greater synergy; a CI of 0.9-1.1 signifies an additive or near-additive effect; and a CI>1.1 means the drug combination is antagonistic.
Fenretinide and L-threo-sphinganines tested in human Multiple Myeloma (a cancer of the blood and bone marrow) cell line, RPMI-8226.

[2] = test system: A-172 Glioblastoma multiforme cell line; assay: DIMSCAN cytotoxicity, fenretinide + L-threo-sphinganines 3:1 (Example B4); parameters: key to CI (Combination Index): Chou-Talalay CI: <0.9 synergy, 0.9-1.1 additive, >1.1 antagonism; conditions: 96 h
Description: as §1, §2
Fenretinide and L-threo-sphinganines tested in human Glioblastoma multiforme (brain cancer) cell line, A-172.

[3] = test system: U-118 Glioblastoma cell line; assay: DIMSCAN cytotoxicity, fenretinide + L-threo-sphinganines 3:1 (Example B5); parameters: key to CI (Combination Index): CI<0.9 synergy, 0.9-1.1 additive, >1.1 antagonistic; conditions: U-118 MG, 96 h
Description: as §1, §2
Fenretinide and L-threo-sphinganines tested in human Glioblastoma (brain cancer) cell line, U-118.

[4] = test system: T98G Glioblastoma multiforme cell line; assay: DIMSCAN cytotoxicity, fenretinide + L-threo-sphinganines 3:1 (Example B6); conditions: 96 h
Description: as §1, §2
Fenretinide and L-threo-sphinganines tested in human Glioblastoma multiforme (brain cancer) cell line, T98G.

[5] = test system: SJ-G2 Glioblastoma cell line; assay: DIMSCAN cytotoxicity, fenretinide + L-threo-sphinganines 3:1 (Example B8); conditions: 96 h
Description: as §1, §2
Fenretinide and L-threo-sphinganines tested in human Glioblastoma (brain cancer) cell line, SJ-G2.

[6] = 4-HPR 1.5 μM + L-threo-sphinganine 0.5 μM
[7] = 4-HPR 3 μM + L-threo-sphinganine 1 μM
[8] = 4-HPR 6 μM + L-threo-sphinganine 2 μM
[9] = 4-HPR 9 μM + L-threo-sphinganine 3 μM

Structure (SMILES)	CI (Combination Index) [1, 6]	Fa (fraction affected) [1, 6]	CI (Combination Index) [1, 7]	Fa (fraction affected) [1, 7]	CI (Combination Index) [1, 8]	Fa (fraction affected) [1, 8]	CI (Combination Index) [1, 9]	Fa (fraction affected) [1, 9]	CI (Combination Index) [2, 6]	Fa (fraction affected) [2, 6]	CI (Combination Index) [2, 7]	Fa (fraction affected) [2, 7]	CI (Combination Index) [2, 8]	Fa (fraction affected) [2, 8]	CI (Combination Index) [2, 9]	Fa (fraction affected) [2, 9]	CI (Combination Index) [3, 6]	Fa (fraction affected) [3, 6]	CI (Combination Index) [3, 7]	Fa (fraction affected) [3, 7]	other results
CCCCCCCCCCCCCCCC[C@H](O)[C@@H](N)CO [C19, (2S,3S)-2-amino-1,3-nonadecanediol]	0.9	0.649	0.9	0.895	0.5	0.996	>0.1	1.000	84.4	0.086	8.1	0.578	>0.1	0.998	>0.1	1.000	1.3	0.530	0.9	0.882	CI (Combination Index) [3, 8]: 0.4; Fa (fraction affected) [3, 8]: 0.991; CI (Combination Index) [3, 9]: 0.3; Fa (fraction affected) [3, 9]: 0.998; CI (Combination Index) [4, 6]: 0.9; Fa (fraction affected) [4, 6]: 0.584; CI (Combination Index) [4, 7]: 1.1; Fa (fraction affected) [4, 7]: 0.704; CI (Combination Index) [4, 8]: 0.1; Fa (fraction affected) [4, 8]: 0.990; CI (Combination Index) [4, 9]: 0.1; Fa (fraction affected) [4, 9]: 0.995; CI (Combination Index) [5, 6]: 0.7; Fa (fraction affected) [5, 6]: 0.389; CI (Combination Index) [5, 7]: 0.8; Fa (fraction affected) [5, 7]: 0.700; CI (Combination Index) [5, 8]: 0.6; Fa (fraction affected) [5, 8]: 0.975; CI (Combination Index) [5, 9]: 0.7; Fa (fraction affected) [5, 9]: 0.983
CCCCCCCCCCCCCCCCC[C@H](O)[C@@H](N)CO [C20, (2S,3S)-2-amino-1,3-icosanediol]	1.0	0.583	1.1	0.867	0.9	0.996	0.3	1	2.8	0.039	1.0	0.594	0.6	0.983	>0.1	1.000	1.8	0.645	0.5	0.984	CI (Combination Index) [3, 8]: 0.3; Fa (fraction affected) [3, 8]: 0.998; CI (Combination Index) [3, 9]: 0.3; Fa (fraction affected) [3, 9]: 0.999; CI (Combination Index) [4, 6]: 2.4; Fa (fraction affected) [4, 6]: 0.397; CI (Combination Index) [4, 7]: 0.2; Fa (fraction affected) [4, 7]: 0.989; CI (Combination Index) [4, 8]: >0.1; Fa (fraction affected) [4, 8]: 1.000; CI (Combination Index) [4, 9]: >0.1; Fa (fraction affected) [4, 9]: 1.000; CI (Combination Index) [5, 6]: 0.9; Fa (fraction affected) [5, 6]: 0.408; CI (Combination Index) [5, 7]: 0.8; Fa (fraction affected) [5, 7]: 0.773; CI (Combination Index) [5, 8]: 1.1; Fa (fraction affected) [5, 8]: 0.896; CI (Combination Index) [5, 9]: 0.2; Fa (fraction affected) [5, 9]: 0.999
CCCCCCCCCCCCCCCCCC[C@H](O)[C@@H](N)CO [C21]	1.2	0.517	1.6	0.722	1.6	0.955	1.1	0.999	8.8	0.006	1.6	0.537	0.8	0.996	>0.1	1.000	1.3	0.588	1.5	0.836	CI (Combination Index) [3, 8]: 0.6; Fa (fraction affected) [3, 8]: 0.995; CI (Combination Index) [3, 9]: 0.5; Fa (fraction affected) [3, 9]: 0.999; CI (Combination Index) [4, 6]: 1.2; Fa (fraction affected) [4, 6]: 0.574; CI (Combination Index) [4, 7]: 1.0; Fa (fraction affected) [4, 7]: 0.805; CI (Combination Index) [4, 8]: 1.8; Fa (fraction affected) [4, 8]: 0.832; CI (Combination Index) [4, 9]: 0.1; Fa (fraction affected) [4, 9]: 0.999; CI (Combination Index) [5, 6]: 1.5; Fa (fraction affected) [5, 6]: 0.118; CI (Combination Index) [5, 7]: 1.9; Fa (fraction affected) [5, 7]: 0.299; CI (Combination Index) [5, 8]: 1.5; Fa (fraction affected) [5, 8]: 0.809; CI (Combination Index) [5, 9]: 0.5; Fa (fraction affected) [5, 9]: 0.995
